Measurements: patent US20050222402A1, “Dna encoding rat bombesin receptor subtype-3 (brs-3) and uses thereof” (priority 2001, published 2005)
Substitutions are numbered along the chain they refer to. Non-standard residues stand in square brackets, D forms with d. Residues, ends and D or L forms follow the SMILES beside them. Nle = CCCC[C@H](N)C(=O)O; βAla = NCCC(=O)O

Columns and labels:
RBB3-E3 = target: T1, RBB3-E3 (Rattus norvegicus, UniProt Q8K418, A302V/D306A/E299Q/E303D/P308H/S300T/V307M/V310I/V311F/Y298S); experiment: Radioligand binding assay with 125I-dYB; parameters: species or system rat/human; conditions: displacement of [125I]dYB by unlabeled dYB
T1 construct: expressed in transfected cells; host or cells: 293EBNA cells, pE3 expression vector
T1 sequence (Q8K418 1-399 Y298S/E299Q/S300T/A302V/E303D/D306A/V307M/P308H/V310I/V311F): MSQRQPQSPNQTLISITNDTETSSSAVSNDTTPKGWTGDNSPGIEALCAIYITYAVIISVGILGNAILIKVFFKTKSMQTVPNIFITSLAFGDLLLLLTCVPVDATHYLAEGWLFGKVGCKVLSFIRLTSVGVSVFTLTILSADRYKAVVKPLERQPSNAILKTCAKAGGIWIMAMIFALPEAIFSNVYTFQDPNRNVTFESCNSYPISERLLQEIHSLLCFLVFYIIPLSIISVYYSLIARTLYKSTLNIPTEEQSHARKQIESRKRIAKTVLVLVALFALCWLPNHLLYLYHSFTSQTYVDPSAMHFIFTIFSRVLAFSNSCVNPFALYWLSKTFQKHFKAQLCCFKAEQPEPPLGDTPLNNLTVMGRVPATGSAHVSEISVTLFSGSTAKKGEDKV
Experimental: After removal of cell nuclei by a low speed centrifugation (1000×g) step, the cell membrane proteins were collected by centrifugation at 35,000×g for 20 minutes. The membrane protein concentration was determined by the Bradford method using BSA as standard.
After a 2 hr incubation at room temperature, the binding reaction was terminated by filtering through a GF/c filter-mate and washing the filter with binding buffer using Packard 96-well Topcount Harvester. The amount of radioligand bound to the receptor was determined by measurement of the radioactivity on the filter through liquid scintillation counting. The non-specific binding was defined as the binding in the presence of 1 uM unlabeled dYB.

mouse BRS-3 = target: T2, mouse BRS-3 (Mus musculus, UniProt O54798, S28P/V27A); experiment: Calcium mobilization assay (FLIPR), same expression system; format: cell-based; conditions: data not shown
T2 construct: expressed in transfected cells; host or cells: same expression system as rat BRS-3 (pE3 / 293EBNA)
T2 sequence (O54798 1-399 V27A/S28P): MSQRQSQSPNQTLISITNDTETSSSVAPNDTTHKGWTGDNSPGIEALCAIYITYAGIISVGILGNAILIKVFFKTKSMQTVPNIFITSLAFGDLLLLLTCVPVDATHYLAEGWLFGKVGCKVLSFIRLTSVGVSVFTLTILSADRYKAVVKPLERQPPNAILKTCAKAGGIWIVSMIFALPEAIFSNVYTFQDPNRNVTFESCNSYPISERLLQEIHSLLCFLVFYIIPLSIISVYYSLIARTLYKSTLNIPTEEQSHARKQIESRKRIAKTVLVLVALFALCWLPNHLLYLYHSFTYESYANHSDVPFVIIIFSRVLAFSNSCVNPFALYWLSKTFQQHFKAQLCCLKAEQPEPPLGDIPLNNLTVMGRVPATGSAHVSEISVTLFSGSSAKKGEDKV

rat BRS-3 = target: T3, rat BRS-3 (Rattus norvegicus, UniProt Q8K418); experiment: Phosphatidylinositol hydrolysis functional assay; format: cell-based
T3 construct: utilized to PCR amplify full-length rat BRS-3 cDNA; expressed in transfected cells; host or cells: 293EBNA cells, pE3 expression vector
T3 sequence (Q8K418 1-399): T1 sequence (Q8K418 1-399 Y298S/E299Q/S300T/A302V/E303D/D306A/V307M/P308H/V310I/V311F) with S298Y, Q299E, T300S, V302A, D303E, A306D, M307V, H308P, I310V, F311V
Experimental: Wild type and mutant BRS-3 constructs were transfected by using lipofectamine reagents (Life Technologies, Rockville, Md.) into 293EBNA cells (Invitrogen, Carlsbad, Calif.) which support episomal replication of plasmid containing Epstein Bar virus OriP segment. Stable cell lines were obtained by selection with 250 ug/ml hygromycin. The cells were maintained as monolayers in Dulbecco's modified Eagle's medium (Life Technologies, Rockville, Md.) supplemented with 10% fetal bovine serum and incubated at 37° C. in a humidified 5% CO2 incubator.
The functional properties of rat BRS-3 were characterized in transfected 293EBNA cells. The transfected 293EBNA cells were plated onto poly-D-lysine coated 12-well plates and incubated in the medium containing 2 uCi/ml [^3H]myo-inositol. The cells were labeled for 48 hrs, and subsequently incubated for 30 minutes in Hank's balanced salt solution containing 10 mM HEPES, 0.1% BSA and 10 mM LiCl.
Since a natural agonist of BRS-3 has not been found, members of the bombesin-like peptide family, including GRP, NMB, bombesin and dYB, were used to stimulate the transfected cells described above, in the same buffer, for 1 hr at 37° C. The reaction was stopped by removal of medium and addition of 10 mM formic acid. The inositol monophosphate fraction was then isolated by anion chromatography as described (Berridge et al. Biochem. J. 212: 473-482 (1983), which is hereby incorporated by reference).

Compound | Ki (RBB3-E3) | EC50 (mouse BRS-3) | increase in PI hydrolysis (rat BRS-3) | stimulation of phosphatidylinositol (PI) hydrolysis (inositol monophosphate production) (rat BRS-3)
CCCC[C@H](NC(=O)[C@H](Cc1ccccc1)NC(=O)[C@H](Cc1cnc[nH]1)NC(=O)CCNC(=O)[C@@H](NC(=O)[C@H](C)NC(=O)[C@H](Cc1c[nH]c2ccccc12)NC(=O)[C@H](CCC(N)=O)NC(=O)[C@H](N)Cc1ccc(O)cc1)C(C)C)C(N)=O [dYB, [D-Tyr6-betaAla11-Phe13-Nle14] bombesin (6-14)] (H-[dY]QWAV[βAla]HF[Nle]-NH2) | 1.2 ± 0.7 nM | – | – | –
CCCC[C@H](NC(=O)[C@H](Cc1ccccc1)NC(=O)[C@H](Cc1c[nH]cn1)NC(=O)CCNC(=O)[C@@H](NC(=O)[C@H](C)NC(=O)[C@H](Cc1c[nH]c2ccccc12)NC(=O)[C@H](CCC(N)=O)NC(=O)[C@H](N)Cc1ccc(O)cc1)C(C)C)C(N)=O [dYB, [D-Tyr6-betaAla11-Phe13-Nle14] bombesin (6-14)] (H-[dY]QWAV[βAla]HF[Nle]-NH2) | – | in the uM range | 9 fold | significant increase
